Measured values as given in patent US20240343729A1 (priority 2021, published 2024).

Assays:
Human PDE10A2 [1] = target: T1, Human PDE10A2 (Homo sapiens (Human), UniProt Q9Y233); assay: biochemical; assay type: biochemical; conditions: human PDE10A2 0.25 nM, cGMP 3 μM
Description: Semi Log compound dilutions starting at a final concentration of 50 μM were dispensed into a black 384 well plate alongside, DMSO and an Inhibited control using the Echo Acoustic dispenser. […] Data was analysed using a 4-parameter fit.

Human PDE10A2 [2] = target: T1, Human PDE10A2; assay: cell-based; conditions: Forskolin 10 μM; read-out: cAMP HTRF Assay in HEK 293 rhPDE10A2 cell line (pIC50) (converted)
Description: Semi log compound dilutions starting at a final concentration of 10 μM were dispensed into a white 384 well plate, alongside DMSO and an Inhibited control using the Tecan D300e digital dispenser. HEK 293 cells overexpressing recombinant human PDE10A2 were seeded on top of the compounds at 2500 cells/well in a volume 5 μL/well. The plate was incubated at room temperature for 60 minutes. To induce endogenous cAMP, 5 μL/well of Forskolin at a final assay concentration of 10 μM was added to the plate. The plate was incubated at room temperature for a further 45 minutes. cAMP HTRF detection reagents were added, and the plate was incubated for 60 minutes at room temperature. […] Data was analysed using a 4-parameter fit.

T1 sequence (Q9Y233 267-1055): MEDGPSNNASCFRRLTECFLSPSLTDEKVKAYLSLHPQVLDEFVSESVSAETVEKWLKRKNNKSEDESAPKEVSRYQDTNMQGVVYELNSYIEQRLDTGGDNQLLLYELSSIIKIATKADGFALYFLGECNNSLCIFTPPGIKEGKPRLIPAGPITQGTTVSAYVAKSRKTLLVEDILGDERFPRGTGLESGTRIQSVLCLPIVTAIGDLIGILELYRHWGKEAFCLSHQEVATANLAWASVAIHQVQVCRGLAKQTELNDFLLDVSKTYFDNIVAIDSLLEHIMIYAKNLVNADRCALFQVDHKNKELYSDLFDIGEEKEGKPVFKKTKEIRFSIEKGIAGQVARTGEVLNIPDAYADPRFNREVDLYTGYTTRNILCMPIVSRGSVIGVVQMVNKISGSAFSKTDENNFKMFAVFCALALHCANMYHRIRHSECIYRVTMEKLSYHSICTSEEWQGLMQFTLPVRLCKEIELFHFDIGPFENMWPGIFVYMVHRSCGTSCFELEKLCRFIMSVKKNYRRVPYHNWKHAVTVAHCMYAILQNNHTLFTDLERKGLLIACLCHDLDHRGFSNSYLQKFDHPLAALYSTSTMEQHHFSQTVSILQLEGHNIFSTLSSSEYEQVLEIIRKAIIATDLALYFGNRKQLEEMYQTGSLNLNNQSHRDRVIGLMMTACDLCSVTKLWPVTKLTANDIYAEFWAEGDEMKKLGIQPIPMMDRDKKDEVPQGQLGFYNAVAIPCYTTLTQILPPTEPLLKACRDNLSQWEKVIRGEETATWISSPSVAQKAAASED

SMILES | PDE10A2 Phosphate Sensor Enzyme Assay (pIC50) (Human PDE10A2 [1]) | IC50 (Human PDE10A2 [2]) [nM] | IC50 (Human PDE10A2 [1]; read-out: PDE10A2 Phosphate Sensor Enzyme Assay (pIC50) (converted)) [nM]
Cn1cc(-c2ccccc2)nc1C#Cc1nc(N2CC3(COC3)C2)c2ncn(C)c2n1 [Example 1, 6-[9-Methyl-2-[2-(1-methyl-4-phenyl-imidazol-2-yl)ethynyl]purin-6-yl]-2-oxa-6-azaspiro[3.3]heptane] | 9.26 | 1.17 | –
Cn1cc(-c2cccnc2)nc1C#Cc1nc(N2CC3(COC3)C2)c2ncn(C)c2n1 [Example 2, 6-[9-Methyl-2-[2-[1-methyl-4-(3-pyridyl)imidazol-2-yl]ethynyl]purin-6-yl]-2-oxa-6-azaspiro[3.3]heptane] | 8.62 | 1.55 | –
Cn1cc(-c2ccccc2)nc1C#Cc1nc(N2CC3(COC3)C2)c2cnn(C)c2n1 [Example 3, 6-[1-Methyl-6-[2-(1-methyl-4-phenyl-imidazol-2-yl)ethynyl]pyrazolo[3,4-d]pyrimidin-4-yl]-2-oxa-6-azaspiro[3.3]heptane] | 9.99 | 0.275 | –
Cn1cnc2c(N3CC4(COC4)C3)nc(C#Cc3nc(-c4ccccc4)cn3CC3CCOCC3)nc21 [Example 4, 6-[9-Methyl-2-[2-[4-phenyl-1-(tetrahydropyran-4-ylmethyl)imidazol-2-yl]ethynyl]purin-6-yl]-2-oxa-6-azaspiro[3.3]heptane] | 9.00 | 6.31 | –
Cn1cnc2c(N3CC4(COC4)C3)nc(C#Cc3nc(-c4ccccc4)cn3CCN3CCOCC3)nc21 [Example 5, 6-[9-Methyl-2-[2-[1-(2-morpholinoethyl)-4-phenyl-imidazol-2-yl]ethynyl]purin-6-yl]-2-oxa-6-azaspiro[3.3]heptane] | 9.37 | 0.427 | –
Cn1cc(-c2ccccc2)nc1C#Cc1nc(N2CC3(COC3)C2)c2cnn(C3CCOCC3)c2n1 [Example 6, 6-[6-[2-(1-Methyl-4-phenyl-imidazol-2-yl)ethynyl]-1-tetrahydropyran-4-yl-pyrazolo[3,4-d]pyrimidin-4-yl]-2-oxa-6-azaspiro[3.3]heptane] | 9.20 | 14.8 | –
Cn1cnc2c(N3CC4(COC4)C3)nc(C#Cc3nc(-c4ccccc4)c[nH]3)nc21 [Example 7, 6-[9-Methyl-2-[2-(4-phenyl-1H-imidazol-2-yl)ethynyl]purin-6-yl]-2-oxa-6-azaspiro[3.3]heptane] | 9.22 | 2.95 | –
Cn1cc(-c2ccccc2)nc1C#Cc1nc(N2CC3(COC3)C2)c2cnn(CC3CNC3)c2n1 [Example 8, 6-[1-(Azetidin-3-ylmethyl)-6-[2-(1-methyl-4-phenyl-imidazol-2-yl)ethynyl]pyrazolo[3,4-d]pyrimidin-4-yl]-2-oxa-6-azaspiro[3.3]heptane] | 8.45 | 5.75 | –
Cn1ncc2c(N3C[C@H]4COC[C@H]4C3)nc(C#Cc3nc(-c4ccccc4)c[nH]3)nc21 [Example 9, (3aS,6aR)-5-[1-methyl-6-[2-(4-phenyl-1H-imidazol-2-yl)ethynyl]pyrazolo[3,4-d]pyrimidin-4-yl]-1,3,3a,4,6,6a-hexahydrofuro[3,4-c]pyrrole] | – | 0.603 | 0.0251
CN(C)CCOc1cccc(-c2c[nH]c(C#Cc3nc(N4C[C@H]5COC[C@H]5C4)c4cnn(C)c4n3)n2)c1 [Example 10, 2-[3-[2-[2-[4-[(3aS,6aR)-1,3,3a,4,6,6a-Hexahydrofuro[3,4-c]pyrrol-5-yl]-1-methyl-pyrazolo[3,4-d]pyrimidin-6-yl]ethynyl]-1H-imidazol-4-yl]phenoxy]-N,N-dimethyl-ethanamine] | 10.4 | 0.661 | –
Cn1cc(-c2ccccc2)nc1C#Cc1nc2c(c(N3CCOCC3)n1)CCNC2 [Example 11, 4-[2-[2-(1-Methyl-4-phenyl-imidazol-2-yl)ethynyl]-5,6,7,8-tetrahydropyrido[3,4-d]pyrimidin-4-yl]morpholine] | 9.80 | 1.86 | –
C[C@@H]1COCCN1c1nc(C#Cc2nc(-c3ccccc3)cn2C)nc2c1CCNC2 [Example 12, (3R)-3-Methyl-4-[2-[2-(1-methyl-4-phenyl-imidazol-2-yl)ethynyl]-5,6,7,8-tetrahydropyrido[3,4-d]pyrimidin-4-yl]morpholine] | 10.40 | 0.437 | –
C[C@H]1COCCN1c1nc(C#Cc2nc(-c3ccccc3)cn2C)nc2c1CCNC2 [Example 13, (3S)-3-Methyl-4-[2-[2-(1-methyl-4-phenyl-imidazol-2-yl)ethynyl]-5,6,7,8-tetrahydropyrido[3,4-d]pyrimidin-4-yl]morpholine] | 8.92 | > 1000 | –
Cn1cc(-c2ccccc2)nc1C#Cc1nc2c(c(N3CCOCC3)n1)CCN(C1COC1)C2 [Example 14, 4-[2-[2-(1-Methyl-4-phenyl-imidazol-2-yl)ethynyl]-7-(oxetan-3-yl)-6,8-dihydro-5H-pyrido[3,4-d]pyrimidin-4-yl]morpholine] | 9.35 | 1.78 | –
Cn1cc(-c2ccccc2)nc1C#Cc1nc2c(c(N3CCOCC3)n1)CCN(CC1CC1)C2 [Example 15, 4-[7-(Cyclopropylmethyl)-2-[2-(1-methyl-4-phenyl-imidazol-2-yl)ethynyl]-6,8-dihydro-5H-pyrido[3,4-d]pyrimidin-4-yl]morpholine] | 8.72 | 562 | –
Cn1cc(-c2ccccc2)nc1C#Cc1nc(N2C[C@H]3COC[C@H]3C2)c2cnn(CC3CC3)c2n1 [Example 16, (3aR,6aS)-5-(1-(Cyclopropylmethyl)-6-((1-methyl-4-phenyl-1H-imidazol-2-yl)ethynyl)-1H-pyrazolo[3,4-d]pyrimidin-4-yl)hexahydro-1H-furo[3,4-c]pyrrole] | 10.10 | 4.17 | –
CCn1ncc2c(N3C[C@H]4COC[C@H]4C3)nc(C#Cc3nc(-c4ccccc4)cn3C)nc21 [Example 17, (3aR,6aS)-5-(1-Ethyl-6-((1-methyl-4-phenyl-1H-imidazol-2-yl)ethynyl)-1H-pyrazolo[3,4-d]pyrimidin-4-yl)hexahydro-1H-furo[3,4-c]pyrrole] | 10.50 | 0.331 | –
C[C@H]1COCCN1c1nc(C#Cc2nc(-c3ccccc3)cn2C)nc2c1ncn2C [Example 22, (S)-3-Methyl-4-(9-methyl-2-((1-methyl-4-phenyl-1H-imidazol-2-yl)ethynyl)-9H-purin-6-yl)morpholine] | 9.22 | – | –
CC(C)n1ncc2c(N3C[C@H]4COC[C@H]4C3)nc(C#Cc3nc(-c4ccccc4)c[nH]3)nc21 [Example 25, (3aR,6aS)-5-(1-isoPropyl-6-((4-phenyl-1H-imidazol-2-yl)ethynyl)-1H-pyrazolo[3,4-d]pyrimidin-4-yl)hexahydro-1H-furo[3,4-c]pyrrole] | 9.95 | – | –
C(#Cc1nc(-c2ccccc2)c[nH]1)c1nc(N2C[C@H]3COC[C@H]3C2)c2cnn(CC3CC3)c2n1 [Example 26, (3aR,6aS)-5-(1-(Cyclopropylmethyl)-6-((4-phenyl-1H-imidazol-2-yl)ethynyl)-1H-pyrazolo[3,4-d]pyrimidin-4-yl)hexahydro-1H-furo[3,4-c]pyrrole] | 9.99 | – | –
